Source: patent publication US7741350B1 (Cara Therapeutics, Inc., priority 2009, dated 2010)
Read-outs that look alike come from different tables or passages of the source.

Assays:
[1] = target: human CB1 receptor (hCB1) (Homo sapiens, UniProt P21554); test: cAMP assay at human CB1 receptor; format: cell-based; details: hCB1R; maximum measurable range 30 μM; read-out: EC50 (Potency at Human CB1 determined by cAMP Assay)
Procedure, shortened: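 Changes in intracellular cAMP measured by TR-FRET (665/615 nm) in forskolin-stimulated cells; cAMP read from a concurrent standard curve. Values normalised between forskolin and forskolin plus 1 μM CP55,940 wells. EC50 and intrinsic activity relative to CP55,940 from four-parameter nonlinear regression.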

[2] = target: human CB2 receptor (hCB2) (Homo sapiens, UniProt P34972); test: cAMP assay at human CB2 receptor; format: cell-based; details: hCB2R, maximum measurable range 30 μM
human CB2 receptor (hCB2), sequence (P34972 whole entry): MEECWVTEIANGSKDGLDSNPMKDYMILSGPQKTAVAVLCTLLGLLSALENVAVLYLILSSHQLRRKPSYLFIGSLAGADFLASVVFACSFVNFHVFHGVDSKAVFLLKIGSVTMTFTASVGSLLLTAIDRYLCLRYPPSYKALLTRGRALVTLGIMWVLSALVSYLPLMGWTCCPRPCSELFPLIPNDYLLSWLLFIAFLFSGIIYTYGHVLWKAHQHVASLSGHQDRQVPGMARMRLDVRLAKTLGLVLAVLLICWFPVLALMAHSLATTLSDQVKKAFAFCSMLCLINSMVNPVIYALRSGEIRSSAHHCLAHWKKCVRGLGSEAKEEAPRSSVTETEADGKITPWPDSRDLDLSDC
Procedure, shortened: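 Values expressed as percent of the window between forskolin-stimulated wells and forskolin plus 1 μM CP55,940 wells.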

[3] = test system: Male ICR mice; test: Inhibition of acetic acid-induced writhing in mice; format: in vivo, mouse; details: dose of 10 mg/kg, subcutaneous 30 min before acetic acid
Source text: 12: 525-562; Ramabadran and Bansinath (1986) Pharm. Res. 3: 263-270]. Intraperitoneal administration of dilute acetic acid solution causes a writhing behavior in mice. A writhe is defined as a contraction of the abdominal muscles accompanied by an extension of the forelimbs and elongation of the body. The number of writhes observed in the presence and absence of test compounds is counted to determine the analgesic activity of the compounds.
Male ICR mice, 20-40 grams in weight, were weighed and placed in individual observation chambers (usually a 4 L beaker) with a fine layer of rodent bedding at the bottom. To determine the activity and potency of test compounds, different doses of the compound solution or vehicle were injected subcutaneously in the back of the neck 30 minutes prior to administration of acetic acid solution. After administration of the compound or vehicle control, mice were returned to their individual observation chambers awaiting the intraperitoneal administration of acetic acid solution.
Thirty minutes later, 10 ml/kg of a 0.6% (v/v) acetic acid solution was then injected into the right lower quadrant of the abdomen. Immediately after the injection, the mouse was returned to its observation chamber and the recording of the number of writhes is begun immediately. The number of writhes was counted over a 15-min period starting from the time of acetic acid injection. Raw data were analyzed using a one-way ANOVA followed by Dunnett's post-tests.
For dose-response analysis, raw data were converted to % maximum possible effect (% MPE) using the formula: % MPE=((Wc−Wv)/(0−Wv))*100, where Wc is the number of writhes in compound-treated mice and Wv is the mean number of writhes in vehicle-treated mice. The dose which elicited 50% attenuation of hypersensitivity (ED50) can be determined using linear regression analysis. (Tallarida & Murray, 1987).

[4] = test system: male Sprague-Dawley rats; test: Anti-hyperalgesia in the Complete Freund's Adjuvant (CFA) model of inflammatory pain; format: in vivo; details: PO dose 3 mg/kg; 1 hr after dosing; thermal hyperalgesia; rat; read-out: % MPE (1 hr), paw withdrawal latency after CFA injection
Method: The anti-hyperalgesic effects of test compounds in the Complete Freund's Adjuvant (CFA) model of inflammatory pain were determined essentially as described in U.S. Pat. No. 7,517,874 using male Sprague-Dawley rats (Hsd: Sprague-Dawley®SD®, Harlan, Indianapolis, Ind.) weighing 200-300 grams.
Test compounds were prepared in a Cremaphor vehicle mixture of 1:1:18 CremophorEL:ethanol:water. Cremophor was obtained from Sigma Chemical (St. Louis, Mo.). The vehicle mixture or vehicle mixture plus test compound were each administered orally.
Assessment of thermal hyperalgesia: Baseline and post-treatment paw withdrawal latencies to a noxious thermal stimulus were measured using a plantar test apparatus (Ugo Basile; obtained from Stoelting, Wood Dale, Ill.). This apparatus generates an infrared heat source that is linearly increasing in intensity. To avoid tissue damage, the power to the heat source was cut off after 20 seconds.
Paw withdrawal latency is defined as the time required for the rat to flick its paw away from the thermal stimulus. Ibuprofen (100 mg/kg, p.o.) was used as the positive control. Paw withdrawal latencies (in seconds) were measured before (naïve paw latency, L1) and 24 hr following (CFA-inflamed paw latency, L2) a single intraplantar injection of 0.1 mL CFA (Sigma-Aldrich, cat F5881, Mycobacterium tuberculosis 1 mg/ml).
Test compounds were administered orally 23 hours following CFA injection; i.e., 1 hour prior to thermal assessment (compound treated CFA-inflamed paw latency, L3). The mean paw withdrawal latency and standard error of the mean (SEM) was determined for the injured paws for each treatment group.
Data were expressed as percent maximum […] effect (% MPE) defined as the percentage of restoration of latency of test compound-treated CFA inflamed paw as compared to the naïve paw latency.

[5] = test system: Rat L5/L6 SNL model; test: Spinal nerve ligation (SNL) model of chronic neuropathic pain; format: in vivo; details: two-way repeated measurement ANOVA, Bonferroni post-tests
Method: The SNL model (Kim and Chung, 1992, Pain 50 (3):355-63) was used to induce chronic neuropathic pain in rats. Rats were anesthetized with isoflurane, the left L5 transverse process was removed, and the L5 and L6 spinal nerves were tightly ligated with 6-0 silk suture. The wound was then closed with internal sutures and external staples. Following at least seven days post SNL, baseline, post-injury and post-treatment values for non-noxious mechanical sensitivity were evaluated using eight Semmes-Weinstein filaments (Stoelting, Wood Dale, Ill., USA) with varying stiffness (0.4, 0.7, 1.2, 2.0, 3.6, 5.5, 8.5, and 15 g) according to the up-down method (Chaplan et al., 1994, J. Neurosci. Meth., 53 (1):55-63). Animals were placed on a perforated metallic platform and allowed to acclimate to their surroundings for a minimum of thirty minutes before testing.
Rat L5/L6 SNL model (n=6/group; mean±sem). Sensitivity to non-noxious mechanical stimuli was tested before and at various time points following oral administration of compound (36). The mean and standard error of the mean (SEM) were determined for the injured paw in each treatment group. Since this stimulus is normally not considered painful, significant injury-induced increases in responsiveness in this test are interpreted as a measure of mechanical allodynia.

[6] = EC50 (Potency at Human CB2 determined by cAMP Assay)
[7] = read-out: EC50 (Potency at Human CB2 determined by cAMP Assay)

human CB1 receptor (hCB1), sequence (P21554 whole entry): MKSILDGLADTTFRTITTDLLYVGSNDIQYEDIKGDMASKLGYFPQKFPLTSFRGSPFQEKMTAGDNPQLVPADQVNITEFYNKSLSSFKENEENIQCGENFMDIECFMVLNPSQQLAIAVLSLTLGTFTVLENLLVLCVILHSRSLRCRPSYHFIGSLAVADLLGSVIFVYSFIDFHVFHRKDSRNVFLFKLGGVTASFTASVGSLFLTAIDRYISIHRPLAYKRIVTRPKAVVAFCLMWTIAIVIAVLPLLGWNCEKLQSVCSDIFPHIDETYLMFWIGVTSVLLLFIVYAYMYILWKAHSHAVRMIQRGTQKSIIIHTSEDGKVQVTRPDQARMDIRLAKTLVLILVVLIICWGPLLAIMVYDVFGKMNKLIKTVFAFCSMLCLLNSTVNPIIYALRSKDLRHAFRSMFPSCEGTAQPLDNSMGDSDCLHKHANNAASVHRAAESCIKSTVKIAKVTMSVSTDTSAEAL

| Compound | EC50 [1] | EC50 [2, 6] | reversal of the mechanical hyperalgesia induced by the acetic acid treatment [3] | inhibition in vivo at 3 mg/kg [4] | Sensitivity to non-noxious mechanical stimuli, significance vs. vehicle-controls ([5]; 3 mg/kg oral) | Sensitivity to non-noxious mechanical stimuli, significance vs. vehicle-controls ([5]; 10 mg/kg oral) | Sensitivity to non-noxious mechanical stimuli, significance vs. vehicle-controls ([5]; 30 mg/kg oral) | EC50 [2, 7] |
| --- | --- | --- | --- | --- | --- | --- | --- | --- |
| CNC(=O)[C@@H](NC(=O)n1nc(-c2ccc(F)c(F)c2)c2c1CCOC2)C(C)(C)C [Compound 28, (S)-3-(3,4-difluorophenyl)-N-(3,3-dimethyl-1-(methyl-amino)-1-oxobutan-2-yl)-6,7-dihydropyrano[4,3-c]pyrazole-1(4H)-carboxamide] | < 1 µM | < 1 µM | 100% |  |  |  |  |  |
| CC(C)(C)[C@H](NC(=O)n1nc(-c2cc(F)c(F)cc2F)c2c1CCOC2)C(=O)NCCO [Compound 35, (S)—N-(1-(2-hydroxyethylamino)-3,3-dimethyl-1-oxobutan-2-yl)-3-(2,4,5-trifluorophenyl)-6,7-dihydropyrano[4,3-c]pyrazole-1(4H)-carboxamide] | < 1 µM | < 1 µM | 100% |  |  |  |  |  |
| CC(C)(C)[C@H](NC(=O)n1nc(-c2ccc(F)c(F)c2)c2c1CCOC2)C(=O)NCCO [Compound 36, (S)—N-(1-(2-hydroxyethylamino)-3,3-dimethyl-1-oxobutan-2-yl)-3-(3,4-difluorophenyl)-6,7-dihydropyrano[4,3-c]pyrazole-1(4H)-carboxamide] | < 1 µM | < 1 µM |  | 44% | significant to p<0.05 vs. vehicle-controls | significant to p<0.001 vs. vehicle-controls | significant to p<0.001 vs. vehicle-controls |  |
| CNC(=O)[C@@H](NC(=O)n1nc(-c2cc(F)c(F)cc2F)c2c1CCN(C)C2)C(C)(C)C [Compound 37, (S)—N-(3,3-dimethyl-1-(methylamino)-1-oxobutan-2-yl)-5-methyl-3-(2,4,5-trifluorophenyl)-4,5,6,7-tetrahydro-1H-pyrazolo[4,3-c]pyridine-1-carboxamide] | < 1 µM | < 1 µM | 100% |  |  |  |  |  |
| CN1CCc2c(c(-c3ccc(F)c(F)c3)nn2C(=O)N[C@H](C(=O)NCCO)C(C)(C)C)C1 [Compound 98, (S)-3-(3,4-difluorophenyl)-N-(1-(2-hydroxyethylamino)-3,3-dimethyl-1-oxobutan-2-yl)-5-methyl-4,5,6,7-tetrahydro-1H-pyrazolo[4,3-c]pyridine-1-carboxamide] | < 1 µM | < 1 µM |  | 36% |  |  |  |  |
| CC(C)(C)[C@H](NC(=O)n1nc(-c2ccc(F)c(F)c2)c2c1CCOC2)C(N)=O [Compound 99, (S)—N-(1-amino-3,3-dimethyl-1-oxobutan-2-yl)-3-(3,4-difluorophenyl)-6,7-dihydropyrano[4,3-c]pyrazole-1(4H)-carboxamide] | < 1 µM |  |  | 68% |  |  |  | > 1 µM |
| CNC(=O)[C@@H](NC(=O)n1nc(-c2ccc(F)c(F)c2)c2c1CCCN2CCO)C(C)(C)C [Compound 101, (S)-3-(3,4-difluorophenyl)-N-(3,3-dimethyl-1-(methylamino)-1-oxobutan-2-yl)-4-(2-hydroxyethyl)-4,5,6,7-tetrahydro-1H-pyrazolo[4,3-b]pyridine-1-carboxamide] | < 1 µM |  |  | 28% |  |  |  | < 1 µM |
